Tests used:
Or43a receptor [1] = target: T1, Or43a receptor (Drosophila melanogaster, UniProt P81917, L154V); assay: biochemical; assay type: binding
T1 construct: His (from vector pAc5.1/V5-His B) (C); expressed in transfected cells
Method: To address whether Or83b receptor and Or43a receptor contain a specific binding site for tyramine, membranes expressing Or83b receptor or Or43a receptor are prepared from cells expressing either receptor, as described above, and used for competitive binding with ^3H-tyramine. The binding assay protocol is exactly as described for cells expressing TyrR, as described above.

Or43a receptor [2] = target: T1, Or43a receptor; assay: Intracellular Ca^2+ mobilization in Schneider cells expressing Or43a receptor; assay type: cell-based
tyramine receptor (TyrR) = target: T2, tyramine receptor (TyrR) (Drosophila melanogaster, UniProt P22270); assay: cAMP levels in Schneider cells expressing tyramine receptor; assay type: cell-based; design: oligonucleotides that are used to amplify the open reading frame of the Drosophila tyramine receptor (TyrR); expressed in transfected cells
T2 sequence (P22270 27-601): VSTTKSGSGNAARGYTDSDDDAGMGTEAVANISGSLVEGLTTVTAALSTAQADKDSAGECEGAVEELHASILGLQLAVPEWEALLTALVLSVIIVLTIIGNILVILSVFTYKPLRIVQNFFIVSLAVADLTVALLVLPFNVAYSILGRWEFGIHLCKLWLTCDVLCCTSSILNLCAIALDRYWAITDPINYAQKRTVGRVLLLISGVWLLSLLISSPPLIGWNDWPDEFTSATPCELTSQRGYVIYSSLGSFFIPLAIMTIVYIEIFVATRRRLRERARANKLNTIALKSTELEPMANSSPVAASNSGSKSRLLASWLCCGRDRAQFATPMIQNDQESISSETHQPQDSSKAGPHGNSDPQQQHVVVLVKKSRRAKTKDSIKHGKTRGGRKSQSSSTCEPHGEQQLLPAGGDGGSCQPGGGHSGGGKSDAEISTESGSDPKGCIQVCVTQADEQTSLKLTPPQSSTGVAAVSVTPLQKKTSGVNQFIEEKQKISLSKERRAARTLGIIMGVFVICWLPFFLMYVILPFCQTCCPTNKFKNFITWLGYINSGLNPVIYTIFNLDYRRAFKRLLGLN
Method: Cells are grown on dishes and the media changed the day before the treatment. When cells are approximately 95% confluent, media is aspirated and the cells are washed one time with about 5 mL of about 27° C. insect saline (170 mM NaCl, 6.0 mM KCl, 2.0 mM NaHCO3, 17.0 mM glucose, 6.0 mM NaH2PO4, 2.0 mM CaCl2, 4.0 mM MgCl2; pH 7.0). About 20 mL of insect saline is added, and cells are harvested by gentle scraping. An aliquot of the cells is counted by hemocytometer, and the cells are then centrifuged for about 5 minutes at about 1000 RPM. Cells are resuspended to give about 3×10^6 cells per mL. IBMX is added to about 200 μM. Then about 1 mL of cell suspension is aliquoted for treatment. Forskolin (cAMP inducing agent), tyramine or different composition candidates are added, and the cells are incubated at about 27° C. for about 10 minutes.
Treated cells are centrifuged at about 13000 g for about 10 seconds. The solution is aspirated and about 1 mL of about −20° C. 70% ethanol is added. The cell pellet is disrupted by vortexing and the samples placed at about −20° C. overnight. Following the ethanol extraction, cellular debris is pelleted by centrifugation at about 13000 g for about 5 minutes. The supernatant is transferred to a tube and lyophilized to dryness in a rotary speed-vac. […]
The cAMP assay is based on competition binding between endogenous cAMP and ^3H-cAMP to a cAMP binding protein. […] About 200 μL of the reaction mixture is removed and levels of ^3H-cAMP are determined by scintillation counting. Levels of endogenous cAMP from the cells are calculated using a standard curve with cold cAMP ranging from about 0 to 16 pmol per reaction.
To examine test chemical-dependent coupling of the tyramine receptor, pAcB-TyrR is stably expressed in Schneider cells. Transfected and untransfected cells are treated with tyramine (about 10 μM), LFO (about 25 μg/ml) and BSO (about 25 μg/ml) in the presence and absence of forskolin (FK) (about 10 μM). cAMP production is measured using the ^3H-cAMP assay kit (Amersham) as described above.

T1 sequence (P81917 whole entry L154V): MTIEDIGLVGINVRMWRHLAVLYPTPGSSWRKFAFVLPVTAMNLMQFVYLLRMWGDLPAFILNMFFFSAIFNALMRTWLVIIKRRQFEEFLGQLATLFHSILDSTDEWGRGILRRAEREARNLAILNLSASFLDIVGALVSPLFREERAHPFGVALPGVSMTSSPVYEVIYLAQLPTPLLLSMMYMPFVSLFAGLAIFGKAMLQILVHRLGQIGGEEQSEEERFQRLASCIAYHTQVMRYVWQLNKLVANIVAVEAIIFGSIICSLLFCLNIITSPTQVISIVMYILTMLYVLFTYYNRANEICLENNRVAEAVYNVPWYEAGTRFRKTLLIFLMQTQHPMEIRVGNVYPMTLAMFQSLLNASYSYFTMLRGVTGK

NCCc1ccc(O)cc1 [tyramine]
Kd (Or43a receptor [1]): ~13.5 nM | Ki (Or43a receptor [1]): 13.5 nM | change in intracellular Ca^2+ levels (340/380 fluorescence ratio) (Or43a receptor [2]; before vs approximately 150 seconds after treatment): only negligibly | increase in intracellular calcium (Or43a receptor [2]; ionomycin about 2 μM, tyramine about 10 μM): ~3.5 fold | effect on cAMP in the presence of forskolin (tyramine receptor (TyrR); forskolin about 10 μM): significantly antagonizes forskolin-stimulated cAMP levels | decrease in cAMP level (tyramine receptor (TyrR); tyramine about 10 μM, LFO and BSO about 25 μg/ml, without forskolin): about 10%
